Laboratory results taken from paper PMC12670426 (Journal of Medicinal Chemistry, 2025).
Where two headings read alike, the source gives them in different places.

Legend:
[1] = Plasma protein binding assay (rapid equilibrium dialysis), human plasma; format: in vitro ADME; details: fraction bound, read-out: plasma protein binding Fb human (converted)
Protocol: (§1) Test compound (10 μM) was incubated at 37 °C for 4 h with mouse, rat, or human plasma (Biowest) in the donor well of a rapid equilibrium dialysis plate (Thermo Fisher Scientific). PBS was placed in the acceptor well. To stop the assay, samples were collected from both wells, and an equal volume of plasma was added to the PBS sample, and vice versa. Proteins were then precipitated by adding three volumes of ice-cold methanol. Samples were mixed gently, kept at −20 °C for 30 min, and then stored at 4 °C overnight. The next day, the samples were centrifuged, and the supernatants were diluted with four volumes of 30% methanol in water. The samples were then analyzed using the Echo-MS system (SCIEX) with MRM transition monitoring, except for compound 3af, which was analyzed by LC–MS/MS as described in the plasma stability assay.

[2] = Microsomal stability assay, human liver microsomes; format: in vitro ADME; details: pooled liver microsomes, pH 7.4, human liver microsomes 0.5 mg/mL, NADPH
Protocol: (§2) Microsomal stability was determined using 0.5 mg/mL of pooled human, mouse, or rat liver microsomes (Thermo Fisher Scientific) in 90 mM TRIS-Cl buffer (pH 7.4) containing 2 mM NADPH and 2 mM MgCl2. Test compounds (10 μM) were added, and the resulting mixture was incubated at 37 °C for 10, 60, 120, and 180 min. The reactions were terminated by the addition of four volumes of ice-cold methanol, followed by vigorous mixing. The samples were left at −20 °C for 30 min and then stored at 4 °C overnight. The next day, samples were centrifuged, and supernatants were diluted with four volumes of 30% methanol in water. Zero time points were prepared by adding ice-cold methanol to the mixture of compounds and cofactors prior to the addition of microsomes. The samples were then analyzed using the Echo-MS system (SCIEX) with MRM transition monitoring, except for compound 3af, which was analyzed by LC–MS/MS as described in the plasma stability assay.

[3] = Plasma protein binding, summary across species; format: in vitro ADME; details: summary across human, mouse and rat plasma
Protocol: as §1

[4] = Microsomal stability assay, rat liver microsomes; format: in vitro ADME; details: pooled liver microsomes, pH 7.4, rat liver microsomes 0.5 mg/mL, NADPH
Protocol: as §2

[5] = Kinetic solubility assay in PBS; format: physicochemical; details: aqueous buffer, kinetic from dmso stock; PBS at pH 7.4, 100 μM final, 2 h room temperature
Protocol: The solutions were incubated at room temperature for 2 h and filtered by centrifugation. Filtrates were diluted 100-fold with 50% acetonitrile in water and then analyzed on the Echo-MS system (SCIEX) using MRM transition monitoring, except for compound 3af, which was analyzed by LC–MS/MS as described in the plasma stability assay. Compound concentrations were quantified against calibration curves prepared in the identical matrix as the samples.

[6] = Plasma protein binding assay (rapid equilibrium dialysis), mouse plasma; format: in vitro ADME; details: fraction bound, read-out: plasma protein binding Fb mouse (converted)
Protocol: as §1

[7] = Plasma protein binding assay (rapid equilibrium dialysis), rat plasma; format: in vitro ADME; details: fraction bound, read-out: plasma protein binding Fb rat (converted)
Protocol: as §1

[8] = target: T1, human galectin-1 (Gal-1, full length) (Homo sapiens, UniProt P09382); experiment: Competitive fluorescence polarization assay, Gal-1; format: binding
T1 construct: Gal-1 is a prototype galectin consisting of a single CRD and was used in full length; 6xHis tag with TEV protease site (N, cleaved yes); made in house; host or cells: BL21 Escherichia coli (pET-15b)
How it was run: (§3)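 Competitive fluorescence polarization (anisotropy) with a fluorescent probe; full-length Gal-1 and C-terminal CRD construct of Gal-3. Read after 30–60 min incubation at 25 °C. Kd fitted with Wang's exact cubic competitive model, rmin/rmax fixed from direct binding.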

[9] = Plasma stability assay, rat plasma; format: in vitro ADME; details: 37 °C
Protocol: (§4) Test compounds (10 μM) were incubated with mouse, rat, or human pooled plasma from 50 donors (Biowest) at 37 °C for 20, 60, and 120 min. Reactions were terminated by adding four volumes of ice-cold methanol, followed by vigorous mixing. Samples were kept at −20 °C for 30 min and then stored at 4 °C overnight. The next day, samples were centrifuged, and supernatants were diluted with four volumes of 30% methanol in water. Zero time points were prepared by adding ice-cold methanol to the compound prior to the addition of plasma. Samples were then analyzed on an Echo MS system (SCIEX) using multiple reaction monitoring (MRM). The only exception was compound 3af, which was analyzed by LC–MS/MS (SCIEX 6500 triple quadrupole) due to its weak ionization in Echo-MS.

[10] = Microsomal stability assay, mouse liver microsomes; format: in vitro ADME; details: pooled liver microsomes, pH 7.4, mouse liver microsomes 0.5 mg/mL, NADPH
Protocol: as §2

[11] = Plasma stability assay, human plasma; format: in vitro ADME; details: pooled plasma, 37 °C
Protocol: as §4

[12] = target: T2, human galectin-3C (Gal-3C, C-terminal CRD of galectin-3) (Homo sapiens, UniProt P17931); experiment: Competitive fluorescence polarization assay, Gal-3C; format: binding
T2 construct: only the C-terminal domain was used (Gal-3C); 6xHis tag with TEV protease site (N, cleaved yes); made in house; host or cells: BL21 Escherichia coli (pET-15b)
How it was run: as §3

[13] = Plasma stability assay, mouse plasma; format: in vitro ADME; details: 37 °C
Protocol: as §4

[14] = target: galectin CRD; parameters: method as in not given; details: endogenous ligand binding the galectin CRD; literature value, ref not given; cited from earlier work
[15] = target: Gal-1; experiment: Direct binding fluorescence polarization of the fluorescent probe, Gal-1; parameters: species or system human; details: [probe] 100 nM, mean ± SD
Protocol: (§5) Fluorescence polarization measurements were performed at 25 °C using a Tecan Spark multiplate reader (Tecan, Switzerland) with excitation at 485 ± 20 nm and emission at 535 ± 20 nm in a 384-well black polystyrene microplate (Corning 4514, USA). Dissociation constants of the probe (K d ^*) were determined by fitting the binding data with a quadratic model for direct binding using the BindCurve package. Additional details on the model, probe concentrations, and fitting parameters are provided in the Supporting Information.
(§6) Fluorescence polarization
(§7) Direct binding was modeled by a quadratic model, which is written as […]
(§8) where r corresponds to the measured anisotropy, rmin corresponds to the anisotropy of the free probe (labeled ligand), and rmax corresponds to maximal anisotropy, which is achieved when all molecules of the probe are bound to the receptor. Kd∗ is the dissociation constant of the probe and [R] is the concentration of free receptor. [R] is determined by a quadratic equation […]
(§9) where [L∗]T is the total concentration of the probe and [R]T is the total concentration of the receptor. Using quadratic formula, the positive root is calculated as […]
(§10) Table S1. Calculated Kd∗ values, total concentrations of the fluorescent probe, and model asymptotes from direct binding experiments. […]
(§11) a K∗ values are expressed as mean ± SD from two independent experiments, each performed […]

[16] = target: T3, Gal-3C (Homo sapiens, UniProt P17931); experiment: Direct binding fluorescence polarization of the fluorescent probe, Gal-3C; details: [probe] 5 nM, mean ± SD
T3 construct: only the C-terminal domain was used (Gal-3C); 6xHis tag with TEV protease site (N, cleaved yes); made in house; host or cells: BL21 Escherichia coli (pET-15b)
Protocol: as §5, §6, §7, §8, §9, §10, §11

[17] = CSV supplement, unrounded mean, read-out: Gal1_IC50_mean_uM
[18] = CSV supplement, unrounded mean, read-out: Gal1_Kd_mean_uM
[19] = competitive fluorescence polarization, mean ± SD, read-out: Kd Gal-1
[20] = four-parameter logistic model, mean ± SD, read-out: IC50 Gal-1
[21] = CSV supplement, unrounded mean, read-out: Gal3C_IC50_mean_uM
[22] = CSV supplement, unrounded mean, read-out: Gal3C_Kd_mean_uM
[23] = competitive fluorescence polarization, mean ± SD, read-out: Kd Gal-3C
[24] = four-parameter logistic model, mean ± SD, read-out: IC50 Gal-3C

T1 sequence (P09382 2-135): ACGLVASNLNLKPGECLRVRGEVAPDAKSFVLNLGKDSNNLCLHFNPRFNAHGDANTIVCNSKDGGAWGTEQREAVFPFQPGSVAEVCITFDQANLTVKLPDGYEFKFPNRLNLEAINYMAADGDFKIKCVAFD
T2 sequence (P17931 118-248 limits assumed): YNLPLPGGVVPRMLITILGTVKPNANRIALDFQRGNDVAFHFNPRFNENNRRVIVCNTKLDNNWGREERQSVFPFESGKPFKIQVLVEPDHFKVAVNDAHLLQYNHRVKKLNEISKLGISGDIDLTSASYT
T3 sequence (P17931 118-248 limits assumed): as above

In the case of `CC(=O)N(c1cc(O)cc(C(=O)O)c1)[C@@H]1O[C@H](CO)[C@@H](O[C@@H]2O[C@H](CO)[C@H](O)[C@H](O)[C@H]2O)[C@H](O)[C@H]1O` [Compound 3ad, N-[4-O-(β-D-Galactopyranosyl)-β-D-glucopyranosyl]-N-(3-carboxy-5-hydroxyphenyl)acetamide], the fraction unbound at 4 h, 10 μM [1] is reported as 0.94, the microsomal CLint at 10 μM [2] is reported as under 2 µL/min/mg and the fraction unbound at 4 h, 10 μM [3] is reported as over 0.9. For the same compound, the microsomal CLint at 10 μM [4] was under 2 µL/min/mg, the solubility kinetic at 2 h [5] was over 100 µM and the fraction unbound at 4 h, 10 μM [6] was 0.93. For the same compound, the fraction unbound at 4 h, 10 μM [7] was 0.94, the IC50 [8, 17] was 1.24 mM and the Kd [8, 18] was 737 µM. For the same compound, the Kd [8, 19] was 740 ± 20 µM, the IC50 [8, 20] was 1.2 ± 0.3 mM and the remaining at 2 h, 10 μM [9] was 140 ± 7%. For the same compound, the microsomal CLint at 10 μM [10] was under 2 µL/min/mg, the remaining at 2 h, 10 μM [11] was 99 ± 8% and the IC50 [12, 21] was 32.2 µM. The Kd [12, 22] was 11.4 µM, the Kd [12, 23] was 11 ± 2 µM and the IC50 [12, 24] was 32 ± 2 µM. It also gave a remaining at 2 h, 10 μM [13] of 110 ± 2%.
`CC(=O)N(c1cc(C(=O)O)cc2[nH]ccc12)[C@@H]1O[C@H](CO)[C@@H](O[C@@H]2O[C@H](CO)[C@H](O)[C@H](O)[C@H]2O)[C@H](O)[C@H]1O` [Compound 3af, N-[4-O-(β-D-Galactopyranosyl)-β-D-glucopyranosyl]-N-(6-carboxy-1H-indol-4-yl)acetamide] showed a fraction unbound at 4 h, 10 μM [1] of over 0.95, a microsomal CLint at 10 μM [2] of 3 µL/min/mg and a fraction unbound at 4 h, 10 μM [3] of over 0.9. The microsomal CLint at 10 μM [4] was under 2 µL/min/mg, the solubility kinetic at 2 h [5] was over 100 µM and the fraction unbound at 4 h, 10 μM [6] was over 0.95. The fraction unbound at 4 h, 10 μM [7] was 0.73, the IC50 [8, 17] was 1.53 mM and the Kd [8, 18] was 846 µM. It also gave a Kd [8, 19] of 850 ± 200 µM, an IC50 [8, 20] of 1.5 ± 0.3 mM and a remaining at 2 h, 10 μM [9] of 94%. The microsomal CLint at 10 μM [10] was under 2 µL/min/mg, the remaining at 2 h, 10 μM [11] was 100% and the IC50 [12, 21] was 11.4 µM. The Kd [12, 22] was 4.15 µM, the “enhancement of affinity for Gal-3C compared to 3r” value ([12]; compared to 3r) was 10 fold and the “improvement in affinity toward Gal-3C compared to 3a” value ([12]; compared to unsubstituted phenyl derivative 3a) was 27 fold. The “improvement in affinity toward Gal-3C compared to β-LacOMe” value ([12]; compared to β-LacOMe) was 56 fold, the Kd [12, 23] was 4.1 ± 0.4 µM and the IC50 [12, 24] was 11 ± 0.9 µM. The “selectivity for Gal-3C over Gal-1” value ([12]; ratio Kd (Gal-1)/Kd (Gal-3C)) was “more than 200 fold” and the remaining at 2 h, 10 μM [13] was 76%.
`CC(=O)c1c[nH]c2cc(C(=O)O)cc(N(C(C)=O)[C@@H]3O[C@H](CO)[C@@H](S[C@@H]4O[C@H](CO)[C@H](O)[C@H](n5cc(-c6cccc(F)c6)nn5)[C@H]4O)[C@H](O)[C@H]3O)c12` [Compound 10, N-[4-S-(3-Deoxy-3-(4-(3-fluorophenyl)-1H-1,2,3-triazol-1-yl)-β-D-galactopyranosyl)-4-thio-β-D-glucopyranosyl]-N-(3-acetyl-6-carboxy-1H-indol-4-yl)acetamide] gave a fraction unbound at 4 h, 10 μM [1] of 0.66, a microsomal CLint at 10 μM [2] of under 2 µL/min/mg and a fraction unbound at 4 h, 10 μM [3] of 0.1 to 0.78. It also gave a microsomal CLint at 10 μM [4] of under 2 µL/min/mg, a solubility kinetic at 2 h [5] of over 100 µM and a fraction unbound at 4 h, 10 μM [6] of 0.78. The fraction unbound at 4 h, 10 μM [7] was 0.75, the IC50 [8, 17] was 0.00716 mM and the Kd [8, 18] was 3.62 µM. For the same compound, the Kd [8, 19] was 3.6 ± 0.4 µM, the IC50 [8, 20] was 0.0072 ± 0.0006 mM and the remaining at 2 h, 10 μM [9] was 110 ± 5%. The microsomal CLint at 10 μM [10] was under 2 µL/min/mg, the remaining at 2 h, 10 μM [11] was 92 ± 6% and the IC50 [12, 21] was 0.154 µM. The Kd [12, 22] was 0.0315 µM, the Kd [12, 23] was 0.031 ± 0.004 µM and the IC50 [12, 24] was 0.15 ± 0.009 µM. It also gave a remaining at 2 h, 10 μM [13] of 89 ± 5%.
For `CC(=O)N[C@H]1C(O)O[C@H](CO)[C@@H](O[C@@H]2O[C@H](CO)[C@H](O)[C@H](O)[C@H]2O)[C@@H]1O` (stereo partly shown) [LacNAc, N-acetyllactosamine], the Kd [14] is given as about 100 µM.
With `O=C(NCc1cn([C@H]2[C@@H](O)[C@@H](CO)O[C@@H](S[C@@H]3O[C@H](CO)[C@H](O)[C@H](n4cc(-c5cccc(F)c5)nn4)[C@H]3O)[C@@H]2O)nn1)c1ccc2c(c1)C(=O)OC21c2ccc(O)cc2Oc2cc(O)ccc21` [fluorescent probe, 3-deoxy-3-[4-(fluorescein-5-yl-carbonylaminomethyl)-1H-1,2,3-triazol-1-yl]-β-D-galactopyranosyl-3-deoxy-3-[4-(3-fluorophenyl)-1H-1,2,3-triazol-1-yl]-1-thio-β-D-galactopyranoside] the Kd [15] was 740 ± 9 nM and the Kd [16] was 22 ± 2 nM.
